Source: ChEMBL document CHEMBL1697781, “Assessment of the health effects of chemicals in humans: II. Construction of an adverse effects database for QSAR modeling” (Curr Drug Discov Technol, 2004)

tested on: Hepatotoxicity; assay: FDA HLAED, liver enzyme composite activity; details: human
For GGT Increase - Index Value in this document: reference of the scale not given here.
For LDH Increase - Index Value in this document: reference of the scale not given here.

Row | SMILES | Composite Activity - Active | Composite Activity - Marginal | Composite Activity - Score
1 | CCCCC[C@H](O)/C=C/[C@@H]1[C@H]2C/C(=C/CCCC(=O)O)O[C@H]2C[C@H]1O [EPOPROSTENOL] | 0 | 0 | Inactive
2 | COC(=O)CCc1ccc(OCC(O)CNC(C)C)cc1 (stereo not drawn) [ESMOLOL] | 0 | 0 | Inactive
3 | Clc1ccc2c(c1)C(c1ccccc1)=NCc1nncn1-2 [ESTAZOLAM] | 0 | 0 | Inactive
4 | C[C@]12CC[C@@H]3c4ccc(OC(=O)c5ccccc5)cc4CC[C@H]3[C@@H]1CC[C@@H]2O [ESTRADIOL BENZOATE] | 0 | 0 | Inactive
5 | C[C@]12CC[C@@H]3c4ccc(O)cc4CC[C@H]3[C@@H]1CC[C@@H]2OC(=O)CCC1CCCC1 [ESTRADIOL CYPIONATE] | 0 | 0 | Inactive
6 | CCC(=O)Oc1ccc2c(c1)CC[C@@H]1[C@@H]2CC[C@]2(C)[C@@H](OC(=O)CC)CC[C@@H]12 [ESTRADIOL DIPROPIONATE] | 0 | 0 | Inactive

tested on: Hepatotoxicity; assay: FDA HLAED, alkaline phosphatase increase; details: human

Row | SMILES | Alkaline Phosphatase Increase - Activity Score | Alkaline Phosphatase Increase - Index Value | Alkaline Phosphatase Increase - Number of Reports
7 | CCCCC[C@H](O)/C=C/[C@@H]1[C@H]2C/C(=C/CCCC(=O)O)O[C@H]2C[C@H]1O [EPOPROSTENOL] | Inactive | 0 | < 4
8 | COC(=O)CCc1ccc(OCC(O)CNC(C)C)cc1 (stereo not drawn) [ESMOLOL] | Inactive | 0 | < 4
9 | Clc1ccc2c(c1)C(c1ccccc1)=NCc1nncn1-2 [ESTAZOLAM] | Inactive | 0 | < 4
10 | C[C@]12CC[C@@H]3c4ccc(OC(=O)c5ccccc5)cc4CC[C@H]3[C@@H]1CC[C@@H]2O [ESTRADIOL BENZOATE] | Inactive | 1.5 | >= 4
11 | C[C@]12CC[C@@H]3c4ccc(O)cc4CC[C@H]3[C@@H]1CC[C@@H]2OC(=O)CCC1CCCC1 [ESTRADIOL CYPIONATE] | Inactive | 1.5 | >= 4
12 | CCC(=O)Oc1ccc2c(c1)CC[C@@H]1[C@@H]2CC[C@]2(C)[C@@H](OC(=O)CC)CC[C@@H]12 [ESTRADIOL DIPROPIONATE] | Inactive | 1.5 | >= 4

tested on: Hepatotoxicity; assay: FDA HLAED, serum glutamic oxaloacetic transaminase (SGOT) increase; details: human

Row | SMILES | SGOT Increase - Activity Score | SGOT Increase - Index Value | SGOT Increase - Number of Reports
13 | CCCCC[C@H](O)/C=C/[C@@H]1[C@H]2C/C(=C/CCCC(=O)O)O[C@H]2C[C@H]1O [EPOPROSTENOL] | Inactive | 0 | < 4
14 | COC(=O)CCc1ccc(OCC(O)CNC(C)C)cc1 (stereo not drawn) [ESMOLOL] | Inactive | 4.6 | < 4
15 | Clc1ccc2c(c1)C(c1ccccc1)=NCc1nncn1-2 [ESTAZOLAM] | Inactive | 0.8 | < 4
16 | C[C@]12CC[C@@H]3c4ccc(OC(=O)c5ccccc5)cc4CC[C@H]3[C@@H]1CC[C@@H]2O [ESTRADIOL BENZOATE] | Inactive | 2.8 | >= 4
17 | C[C@]12CC[C@@H]3c4ccc(O)cc4CC[C@H]3[C@@H]1CC[C@@H]2OC(=O)CCC1CCCC1 [ESTRADIOL CYPIONATE] | Inactive | 2.8 | >= 4
18 | CCC(=O)Oc1ccc2c(c1)CC[C@@H]1[C@@H]2CC[C@]2(C)[C@@H](OC(=O)CC)CC[C@@H]12 [ESTRADIOL DIPROPIONATE] | Inactive | 2.8 | >= 4

tested on: Hepatotoxicity; assay: FDA HLAED, serum glutamic pyruvic transaminase (SGPT) increase; details: human

Row | SMILES | SGPT Increase - Activity Score | SGPT Increase - Index Value | SGPT Increase - Number of Reports
19 | CCCCC[C@H](O)/C=C/[C@@H]1[C@H]2C/C(=C/CCCC(=O)O)O[C@H]2C[C@H]1O [EPOPROSTENOL] | Inactive | 0 | < 4
20 | COC(=O)CCc1ccc(OCC(O)CNC(C)C)cc1 (stereo not drawn) [ESMOLOL] | Inactive | 0 | < 4
21 | Clc1ccc2c(c1)C(c1ccccc1)=NCc1nncn1-2 [ESTAZOLAM] | Inactive | 0.8 | < 4
22 | C[C@]12CC[C@@H]3c4ccc(OC(=O)c5ccccc5)cc4CC[C@H]3[C@@H]1CC[C@@H]2O [ESTRADIOL BENZOATE] | Inactive | 2.1 | >= 4
23 | C[C@]12CC[C@@H]3c4ccc(O)cc4CC[C@H]3[C@@H]1CC[C@@H]2OC(=O)CCC1CCCC1 [ESTRADIOL CYPIONATE] | Inactive | 2.1 | >= 4
24 | CCC(=O)Oc1ccc2c(c1)CC[C@@H]1[C@@H]2CC[C@]2(C)[C@@H](OC(=O)CC)CC[C@@H]12 [ESTRADIOL DIPROPIONATE] | Inactive | 2.1 | >= 4

tested on: Hepatotoxicity; assay: FDA HLAED, lactate dehydrogenase (LDH) increase; details: human

Row | SMILES | LDH Increase - Activity Score | LDH Increase - Index Value | LDH Increase - Number of Reports
25 | CCCCC[C@H](O)/C=C/[C@@H]1[C@H]2C/C(=C/CCCC(=O)O)O[C@H]2C[C@H]1O [EPOPROSTENOL] | Inactive | 0 | < 4
26 | COC(=O)CCc1ccc(OCC(O)CNC(C)C)cc1 (stereo not drawn) [ESMOLOL] | Inactive | 4.6 | < 4
27 | Clc1ccc2c(c1)C(c1ccccc1)=NCc1nncn1-2 [ESTAZOLAM] | Inactive | 0 | < 4
28 | C[C@]12CC[C@@H]3c4ccc(OC(=O)c5ccccc5)cc4CC[C@H]3[C@@H]1CC[C@@H]2O [ESTRADIOL BENZOATE] | Inactive | 1.2 | >= 4
29 | C[C@]12CC[C@@H]3c4ccc(O)cc4CC[C@H]3[C@@H]1CC[C@@H]2OC(=O)CCC1CCCC1 [ESTRADIOL CYPIONATE] | Inactive | 1.2 | >= 4
30 | CCC(=O)Oc1ccc2c(c1)CC[C@@H]1[C@@H]2CC[C@]2(C)[C@@H](OC(=O)CC)CC[C@@H]12 [ESTRADIOL DIPROPIONATE] | Inactive | 1.2 | >= 4

tested on: Hepatotoxicity; assay: FDA HLAED, gamma-glutamyl transferase (GGT) increase; details: human

Row | SMILES | GGT Increase - Activity Score | GGT Increase - Index Value | GGT Increase - Number of Reports
31 | CCCCC[C@H](O)/C=C/[C@@H]1[C@H]2C/C(=C/CCCC(=O)O)O[C@H]2C[C@H]1O [EPOPROSTENOL] | Inactive | 0 | < 4
32 | COC(=O)CCc1ccc(OCC(O)CNC(C)C)cc1 (stereo not drawn) [ESMOLOL] | Inactive | 0 | < 4
33 | Clc1ccc2c(c1)C(c1ccccc1)=NCc1nncn1-2 [ESTAZOLAM] | Inactive | 0.8 | < 4
34 | C[C@]12CC[C@@H]3c4ccc(OC(=O)c5ccccc5)cc4CC[C@H]3[C@@H]1CC[C@@H]2O [ESTRADIOL BENZOATE] | Inactive | 0.3 | < 4
35 | C[C@]12CC[C@@H]3c4ccc(O)cc4CC[C@H]3[C@@H]1CC[C@@H]2OC(=O)CCC1CCCC1 [ESTRADIOL CYPIONATE] | Inactive | 0.3 | < 4
36 | CCC(=O)Oc1ccc2c(c1)CC[C@@H]1[C@@H]2CC[C@]2(C)[C@@H](OC(=O)CC)CC[C@@H]12 [ESTRADIOL DIPROPIONATE] | Inactive | 0.3 | < 4
